Experimental data from patent US20250123290A1, “BIOTIN-FREE PROXIMITY LABELING” (HOWARD HUGHES MEDICAL INSTITUTE, priority 2023, published 2025).

Key:
APEX2 in the mouse brain = assay: CLA-tyramide (CLA-phenol) mediated proximity labeling in mouse brain; assay type: in vivo; details: mouse brain samples; FIGS. 4A-4B
Method: CLA-tyramide (CLA-phenol) mediated proximity labeling was conducted in mouse brain. […] The mouse brain samples were fixed, permeabilized, and incubated with HaloTag protein. The samples were then stained with antibodies against HaloTag and V5 (on APEX2) to label CLA-tagged proteins and APEX2, respectively.

[1] = tested on: cultured primary neurons expressing LAMP1-APEX2-V5; assay: CLA-tyramide proximity labeling of neuronal lysosomal proteins, imaging with HaloTag protein and antibody staining; assay type: cell-based, rat; details: 150 μM CLA-tyramide, FIG. 2C
From the text: The exemplary system studied in this Example makes use of a unique substrate for proximity labeling, which is a CLA-phenol compound, which in some cases is referred to herein as a CLA-tyramide compound. As will be appreciated, the chemical structure of tyramide includes a phenol moiety. To establish efficacy, the exemplary system was used to detect proteins that are enriched in neuronal lysosomes with lysosome-targeted APEX2 (Lamp1-APEX2).
With reference to FIG. 2A, cultured primary neurons expressing LAMP1-APEX2-V5 were incubated with 0 μM, 50 μM, 150 μM, or 500 μM CLA-tyramide, respectively. Neurons were fixed, permeabilized, and incubated with HaloTag protein. Cells were then stained with antibodies against HaloTag, V5, and MAP5 to label CLA-tagged proteins, LAMP1-APEX2-V5 (lysosome APEX2), and neurons, respectively.
Line scans show the relative intensity of CLA-tagged proteins and LAMP1-APEX2-V5.

cilia and mitochondria = assay: CLA-tyramide labeling in cilia and mitochondria, detection with EGFP-HaloTag protein; assay type: cell-based; details: 250 μM CLA-tyramide; FIGS. 3B and 3D
Method: CLA-tyramide labeling was conducted in cilia and mitochondria. FIGS. 3A and 3B show CLA-tyramide labeling in cilia. FIGS. 3C and 3D show CLA-tyramide labeling in mitochondria. FIGS. 3B and 3D are from experiments in which 250 μM CLA-tyramide was applied to cells. Cells were fixed, permeabilized, and incubated with EGFP-HaloTag protein.

Structure (SMILES): O=C(NCCOCCOCCCCCCCl)NCCc1ccc(O)cc1 [CLA-tyramide]
- co-localization of CLA-tagged proteins and APEX2 (V5) (APEX2 in the mouse brain): good co-localization of most structures
- colocalization of CLA-tagged proteins and LAMP1-APEX2-V5 (line scans of relative intensity) [1]: Good colocalization
- labeling in different subcellular compartments (cilia, mitochondria) (cilia and mitochondria): can be applied to different subcellular compartments
